In ChEMBL document CHEMBL3046568, “Synthesis, antimicrobial and DNA cleavage studies of some 4-aryloxymethylcoumarins obtained by reaction of 4-bromomethylcoumarins with bidentate nucleophiles” (2012):
In brackets after ≈: the same amount, converted by molar mass. Activity calls are given as the source filed them. The calls are words filed in the database; no cut-off is given here.

Legend:
[1] = system: Aspergillus fumigatus; assay: Antifungal activity against Aspergillus fumigatus after 3 to 4 days by serial dilution method; assay type: functional; settings: for MIC: Aspergillus fumigatus
[2] = system: Aspergillus niger; assay: Antifungal activity against Aspergillus niger after 3 to 4 days by serial dilution method; assay type: functional; settings: for MIC: Aspergillus niger
[3] = system: Bacillus subtilis; assay: Antibacterial activity against Bacillus subtilis MTCC 297 after 24 hr by disk diffusion method; assay type: functional; settings: for MIC: Bacillus subtilis, MTCC 297, 24 h
[4] = system: Fusarium oxysporum; assay: Antifungal activity against Fusarium oxysporum after 3 to 4 days by serial dilution method; assay type: functional; settings: for MIC: Fusarium oxysporum
[5] = system: Escherichia coli; assay: Antibacterial activity against Escherichia coli MTCC 1089 after 24 hr by disk diffusion method; assay type: functional; settings: for MIC: Escherichia coli, MTCC 1089, 24 h
[6] = system: Candida albicans; assay: Antifungal activity against Candida albicans after 3 to 4 days by serial dilution method; assay type: functional; settings: for MIC: Candida albicans
[7] = system: Escherichia coli; assay: Induction of Escherichia coli MTCC 1089 DNA cleavage at 50 ug after 2 hr by agarose gel electrophoresis
[8] = system: Staphylococcus aureus; assay: Induction of Staphylococcus aureus MTCC 3160 DNA cleavage at 50 ug after 2 hr by agarose gel electrophoresis
[9] = system: Enterococcus faecalis; assay: Antibacterial activity against Enterococcus faecalis MTCC 3382 after 24 hr by disk diffusion method; assay type: functional; settings: for MIC: Enterococcus faecalis, MTCC 3382, 24 h
[10] = system: Klebsiella pneumoniae; assay: Antibacterial activity against Klebsiella pneumoniae MTCC 3384 after 24 hr by disk diffusion method; assay type: functional; settings: for MIC: Klebsiella pneumoniae, MTCC 3384, 24 h
[11] = system: Mucor fuscus; assay: Antifungal activity against Mucor fuscus after 3 to 4 days by serial dilution method; assay type: functional; settings: for MIC: Mucor fuscus
[12] = system: Pseudomonas aeruginosa; assay: Antibacterial activity against Pseudomonas aeruginosa MTCC 1034 after 24 hr by disk diffusion method; assay type: functional; settings: for MIC: Pseudomonas aeruginosa, MTCC 1034, 24 h
[13] = system: Penicillium chrysogenum; assay: Antifungal activity against Penicillium chrysogenum after 3 to 4 days by serial dilution method; assay type: functional; settings: for MIC: Penicillium chrysogenum
[14] = system: Aspergillus niger; assay: Induction of Aspergillus niger DNA cleavage at 50 ug after 2 hr by agarose gel electrophoresis
[15] = system: Staphylococcus aureus; assay: Antibacterial activity against Staphylococcus aureus MTCC 3160 after 24 hr by disk diffusion method; assay type: functional; settings: for MIC: Staphylococcus aureus, MTCC 3160, 24 h

SMILES	inhibition zone (IZ) [1] [mm]	MIC [1] [mg/L]	inhibition zone (IZ) [2] [mm]	MIC [2] [mg/L]	inhibition zone (IZ) [3] [mm]	MIC [3] [mg/L]	MIC [4] [mg/L]	MIC [5] [mg/L]	inhibition zone (IZ) [6] [mm]	MIC [6] [mg/L]	inhibition zone (IZ) [9] [mm]	MIC [9] [mg/L]	inhibition zone (IZ) [10] [mm]	MIC [10] [mg/L]	inhibition zone (IZ) [11] [mm]	MIC [11] [mg/L]	inhibition zone (IZ) [12] [mm]	inhibition zone (IZ) [13] [mm]	MIC [13] [mg/L]	inhibition zone (IZ) [15] [mm]	other results
CCN(CC)c1cccc(OCc2cc(=O)oc3ccc(Br)cc23)c1	20	6.25 (≈ 15.5 µM)	20	6.25 (≈ 15.5 µM)	17	6.25 (≈ 15.5 µM)	25 (≈ 62.1 µM)	12.5 (≈ 31.1 µM)	16	12.5 (≈ 31.1 µM)	19	6.25 (≈ 15.5 µM)	18	6.25 (≈ 15.5 µM)	18	12.5 (≈ 31.1 µM)	23	21	6.25 (≈ 15.5 µM)	18	inhibition zone (IZ) [4]: 14 mm; inhibition zone (IZ) [5]: 15 mm; Activity [7]: Active; Activity [8]: Active; MIC [12]: 6.25 mg/L (≈ 15.5 µM); Activity [14]: Active; MIC [15]: 6.25 mg/L (≈ 15.5 µM)
Cc1ccc2oc(=O)cc(COc3cccc(O)c3)c2c1	16	12.5 (≈ 44.3 µM)	19	6.25 (≈ 22.1 µM)	15	12.5 (≈ 44.3 µM)	50 (≈ 177 µM)	50 (≈ 177 µM)	10	25 (≈ 88.6 µM)	15	12.5 (≈ 44.3 µM)	13	12.5 (≈ 44.3 µM)	14	25 (≈ 88.6 µM)	14	18	12.5 (≈ 44.3 µM)	13	inhibition zone (IZ) [4]: 8 mm; inhibition zone (IZ) [5]: 8 mm; Activity [7]: inactive; Activity [8]: inactive; MIC [12]: 25 mg/L (≈ 88.6 µM); Activity [14]: inactive; MIC [15]: 12.5 mg/L (≈ 44.3 µM)
Cc1ccc2c(COc3cccc(O)c3)cc(=O)oc2c1	16	12.5 (≈ 44.3 µM)	19	6.25 (≈ 22.1 µM)	14	12.5 (≈ 44.3 µM)	50 (≈ 177 µM)	50 (≈ 177 µM)	9	25 (≈ 88.6 µM)	16	12.5 (≈ 44.3 µM)	13	12.5 (≈ 44.3 µM)	14	25 (≈ 88.6 µM)	16	18	12.5 (≈ 44.3 µM)	14	inhibition zone (IZ) [4]: 9 mm; inhibition zone (IZ) [5]: 9 mm; Activity [7]: inactive; Activity [8]: inactive; MIC [12]: 12.5 mg/L (≈ 44.3 µM); Activity [14]: inactive; MIC [15]: 12.5 mg/L (≈ 44.3 µM)
CC(=O)Nc1cccc(OCc2cc(=O)oc3ccc4ccccc4c23)c1	17	12.5 (≈ 34.8 µM)	19	6.25 (≈ 17.4 µM)	11	25 (≈ 69.6 µM)	25 (≈ 69.6 µM)	25 (≈ 69.6 µM)	15	12.5 (≈ 34.8 µM)	10	25 (≈ 69.6 µM)	15	12.5 (≈ 34.8 µM)	15	25 (≈ 69.6 µM)	18	18	12.5 (≈ 34.8 µM)	13	inhibition zone (IZ) [4]: 12 mm; inhibition zone (IZ) [5]: 13 mm; Activity [7]: inactive; Activity [8]: inactive; MIC [12]: 12.5 mg/L (≈ 34.8 µM); Activity [14]: inactive; MIC [15]: 12.5 mg/L (≈ 34.8 µM)
CCN(CC)c1cccc(OCc2cc(=O)oc3c2ccc2ccccc23)c1	15	12.5 (≈ 33.5 µM)	17	12.5 (≈ 33.5 µM)	11	25 (≈ 66.9 µM)	25 (≈ 66.9 µM)	25 (≈ 66.9 µM)	14	12.5 (≈ 33.5 µM)	14	12.5 (≈ 33.5 µM)	16	12.5 (≈ 33.5 µM)	13	25 (≈ 66.9 µM)	19	17	12.5 (≈ 33.5 µM)	14	inhibition zone (IZ) [4]: 13 mm; inhibition zone (IZ) [5]: 13 mm; Activity [7]: inactive; Activity [8]: inactive; MIC [12]: 6.25 mg/L (≈ 16.7 µM); Activity [14]: inactive; MIC [15]: 12.5 mg/L (≈ 33.5 µM)
O=c1cc(COc2cccc(O)c2)c2ccc3ccccc3c2o1	15	12.5 (≈ 39.3 µM)	17	12.5 (≈ 39.3 µM)	12	25 (≈ 78.5 µM)	25 (≈ 78.5 µM)	25 (≈ 78.5 µM)	13	12.5 (≈ 39.3 µM)	13	25 (≈ 78.5 µM)	14	12.5 (≈ 39.3 µM)	13	25 (≈ 78.5 µM)	19	16	25 (≈ 78.5 µM)	10	inhibition zone (IZ) [4]: 12 mm; inhibition zone (IZ) [5]: 13 mm; Activity [7]: inactive; Activity [8]: inactive; MIC [12]: 6.25 mg/L (≈ 19.6 µM); Activity [14]: inactive; MIC [15]: 25 mg/L (≈ 78.5 µM)
CCN(CC)c1cccc(OCc2cc(=O)oc3ccc4ccccc4c23)c1	14	12.5 (≈ 33.5 µM)	17	12.5 (≈ 33.5 µM)	11	25 (≈ 66.9 µM)	25 (≈ 66.9 µM)	12.5 (≈ 33.5 µM)	13	12.5 (≈ 33.5 µM)	14	12.5 (≈ 33.5 µM)	15	12.5 (≈ 33.5 µM)	14	25 (≈ 66.9 µM)	17	17	12.5 (≈ 33.5 µM)	13	inhibition zone (IZ) [4]: 14 mm; inhibition zone (IZ) [5]: 14 mm; Activity [7]: inactive; Activity [8]: inactive; MIC [12]: 12.5 mg/L (≈ 33.5 µM); Activity [14]: inactive; MIC [15]: 12.5 mg/L (≈ 33.5 µM)
CC(=O)Nc1cccc(OCc2cc(=O)oc3ccc(C)cc23)c1	17	12.5 (≈ 38.7 µM)	20	6.25 (≈ 19.3 µM)	15	12.5 (≈ 38.7 µM)	50 (≈ 155 µM)	25 (≈ 77.3 µM)	9	25 (≈ 77.3 µM)	12	25 (≈ 77.3 µM)	12	12.5 (≈ 38.7 µM)	15	25 (≈ 77.3 µM)	16	19	6.25 (≈ 19.3 µM)	14	inhibition zone (IZ) [4]: 10 mm; inhibition zone (IZ) [5]: 11 mm; Activity [7]: inactive; Activity [8]: inactive; MIC [12]: 12.5 mg/L (≈ 38.7 µM); Activity [14]: inactive; MIC [15]: 12.5 mg/L (≈ 38.7 µM)
Cc1ccc2c(COc3cccc(OCc4cc(=O)oc5cc(C)ccc45)c3)cc(=O)oc2c1	17	12.5 (≈ 27.5 µM)	16	12.5 (≈ 27.5 µM)	14	12.5 (≈ 27.5 µM)	> 100	> 100	8	25 (≈ 55 µM)	16	12.5 (≈ 27.5 µM)	13	12.5 (≈ 27.5 µM)	15	25 (≈ 55 µM)	14	15	25 (≈ 55 µM)	12	Activity [7]: inactive; Activity [8]: inactive; MIC [12]: 25 mg/L (≈ 55 µM); Activity [14]: inactive; MIC [15]: 25 mg/L (≈ 55 µM)
O=C(O)c1cn(C2CC2)c2cc(N3CCNCC3)c(F)cc2c1=O [CIPROFLOXACIN]					20	6.25 (≈ 18.9 µM)		12.5 (≈ 37.7 µM)			23	6.25 (≈ 18.9 µM)	21	6.25 (≈ 18.9 µM)			25			21	inhibition zone (IZ) [5]: 18 mm
OC(Cn1cncn1)(Cn1cncn1)c1ccc(F)cc1F [FLUCONAZOLE]	22	6.25 (≈ 20.4 µM)	24	6.25 (≈ 20.4 µM)			12.5 (≈ 40.8 µM)		20	6.25 (≈ 20.4 µM)					22	6.25 (≈ 20.4 µM)		23	6.25 (≈ 20.4 µM)		inhibition zone (IZ) [4]: 17 mm
